Assay results: the supplement of paper PMC10307832

Experiments:
Test in all cases: relative viability (nuclei count vs DMSO), 5 days (fraction); higher = more cells survive
[1] = compound: CC1(C)CNc2cc(NC(=O)c3cccnc3NCc3ccncc3)ccc21 [Motesanib] + C[C@@H](Oc1cc(-c2cnn(C3CCNCC3)c2)cnc1N)c1c(Cl)ccc(F)c1Cl [Crizotinib] (partner 1 µM)
Summary of the method: (§1)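 Lung cancer cell lines in 1536-well plates got either a single drug or a fixed anchor-drug dose together with five library-drug doses (not always all listed) in √10 steps, by pin tool, on the day after seeding. Nuclei were counted after 5 days, and relative viability is the treated-to-vehicle ratio of nuclei counts. Values are medians of duplicate plates.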

[2] = compound: C[C@@]1(C(=O)Nc2ccc(F)nc2)CCCN1c1nc(Nc2cc(C3CC3)n[nH]2)c2cccn2n1 + O=C(CCCCCCC(=O)Nc1ccccc1)NO [Vorinostat] (partner 1 µM)
Summary of the method: as §1

[3] = compound: C[C@@]1(C(=O)Nc2ccc(F)nc2)CCCN1c1nc(Nc2cc(C3CC3)n[nH]2)c2cccn2n1 + Cc1cc(Nc2cc(N3CCN(C)CC3)nc(Sc3ccc(NC(=O)C4CC4)cc3)n2)n[nH]1 [Tozasertib] (partner 0.1 µM)
Summary of the method: as §1

[4] = compound: CC1(C)CNc2cc(NC(=O)c3cccnc3NCc3ccncc3)ccc21 [Motesanib] + Nc1ncn([C@H]2C[C@H](O)[C@@H](CO)O2)c(=O)n1 [Decitabine] (partner 2 µM)
Summary of the method: as §1

In the case of LXF-289, the relative viability ([1]; first compound 0.01 µM) is reported as 0.822, the relative viability ([1]; first compound 0.03162 µM) is reported as 0.823 and the relative viability ([1]; first compound 0.1 µM) is reported as 0.82. The relative viability ([1]; first compound 0.3162 µM) was 0.842, the relative viability ([1]; first compound 1 µM) was 0.867 and the relative viability ([2]; first compound 0.04 µM) was 0.815. The relative viability ([2]; first compound 0.1265 µM) was 0.701, the relative viability ([2]; first compound 0.4 µM) was 0.73 and the relative viability ([2]; first compound 1.265 µM) was 0.792. The relative viability ([3]; first compound 0.04 µM) was 0.167, the relative viability ([3]; first compound 0.1265 µM) was 0.121 and the relative viability ([3]; first compound 0.4 µM) was 0.14. For the same cell line, the relative viability ([3]; first compound 1.265 µM) was 0.14, the relative viability ([4]; first compound 0.01 µM) was 0.406 and the relative viability ([4]; first compound 0.03162 µM) was 0.427. For the same cell line, the relative viability ([4]; first compound 0.1 µM) was 0.617, the relative viability ([4]; first compound 0.3162 µM) was 0.651 and the relative viability ([4]; first compound 1 µM) was 0.688.

In the case of H3255, the relative viability ([1]; first compound 0.01 µM) is reported as 0.793, the relative viability ([1]; first compound 0.03162 µM) is reported as 0.883 and the relative viability ([1]; first compound 0.1 µM) is reported as 0.986. The relative viability ([1]; first compound 0.3162 µM) was 0.838, the relative viability ([1]; first compound 1 µM) was 0.863 and the relative viability ([2]; first compound 0.04 µM) was 0.852. It also gave a relative viability ([2]; first compound 0.1265 µM) of 0.816, a relative viability ([2]; first compound 0.4 µM) of 0.815 and a relative viability ([2]; first compound 1.265 µM) of 0.829. It also gave a relative viability ([3]; first compound 0.04 µM) of 0.695, a relative viability ([3]; first compound 0.1265 µM) of 0.781 and a relative viability ([3]; first compound 0.4 µM) of 0.656. The relative viability ([3]; first compound 1.265 µM) was 0.582, the relative viability ([4]; first compound 0.01 µM) was 0.561 and the relative viability ([4]; first compound 0.03162 µM) was 0.651. The relative viability ([4]; first compound 0.1 µM) was 0.605, the relative viability ([4]; first compound 0.3162 µM) was 0.623 and the relative viability ([4]; first compound 1 µM) was 0.678.

Work on 201T yielded a relative viability ([1]; first compound 0.01 µM) of 1.02, a relative viability ([1]; first compound 0.03162 µM) of 1.07 and a relative viability ([1]; first compound 0.1 µM) of 1.04. It also gave a relative viability ([1]; first compound 0.3162 µM) of 1.04, a relative viability ([1]; first compound 1 µM) of 1.06 and a relative viability ([2]; first compound 0.04 µM) of 0.858. The relative viability ([2]; first compound 0.1265 µM) was 0.755, the relative viability ([2]; first compound 0.4 µM) was 0.634 and the relative viability ([2]; first compound 1.265 µM) was 0.62. The relative viability ([3]; first compound 0.04 µM) was 0.827, the relative viability ([3]; first compound 0.1265 µM) was 0.709 and the relative viability ([3]; first compound 0.4 µM) was 0.431. The relative viability ([3]; first compound 1.265 µM) was 0.863, the relative viability ([4]; first compound 0.01 µM) was 0.84 and the relative viability ([4]; first compound 0.03162 µM) was 0.864. It also gave a relative viability ([4]; first compound 0.1 µM) of 0.925, a relative viability ([4]; first compound 0.3162 µM) of 0.939 and a relative viability ([4]; first compound 1 µM) of 0.93.

For NCI-H2126, the relative viability ([1]; first compound 0.01 µM) was 1.07, the relative viability ([1]; first compound 0.03162 µM) was 1 and the relative viability ([1]; first compound 0.1 µM) was 0.999. For the same cell line, the relative viability ([1]; first compound 0.3162 µM) was 1.03, the relative viability ([1]; first compound 1 µM) was 1.09 and the relative viability ([2]; first compound 0.04 µM) was 0.595. The relative viability ([2]; first compound 0.1265 µM) was 0.352, the relative viability ([2]; first compound 0.4 µM) was 0.315 and the relative viability ([2]; first compound 1.265 µM) was 0.425. It also gave a relative viability ([3]; first compound 0.04 µM) of 0.677, a relative viability ([3]; first compound 0.1265 µM) of 0.366 and a relative viability ([3]; first compound 0.4 µM) of 0.441. The relative viability ([3]; first compound 1.265 µM) was 0.337, the relative viability ([4]; first compound 0.01 µM) was 0.608 and the relative viability ([4]; first compound 0.03162 µM) was 0.645. The relative viability ([4]; first compound 0.1 µM) was 0.625, the relative viability ([4]; first compound 0.3162 µM) was 0.698 and the relative viability ([4]; first compound 1 µM) was 0.709.

With HOP-62 the relative viability ([1]; first compound 0.01 µM) was 0.899, the relative viability ([1]; first compound 0.03162 µM) was 0.82 and the relative viability ([1]; first compound 0.1 µM) was 0.859. For the same cell line, the relative viability ([1]; first compound 0.3162 µM) was 1.05, the relative viability ([1]; first compound 1 µM) was 0.932 and the relative viability ([2]; first compound 0.04 µM) was 0.589. For the same cell line, the relative viability ([2]; first compound 0.1265 µM) was 0.529, the relative viability ([2]; first compound 0.4 µM) was 0.464 and the relative viability ([2]; first compound 1.265 µM) was 0.527. It also gave a relative viability ([3]; first compound 0.04 µM) of 0.371, a relative viability ([3]; first compound 0.1265 µM) of 0.393 and a relative viability ([3]; first compound 0.4 µM) of 0.298. It also gave a relative viability ([3]; first compound 1.265 µM) of 0.337, a relative viability ([4]; first compound 0.01 µM) of 0.179 and a relative viability ([4]; first compound 0.03162 µM) of 0.233. For the same cell line, the relative viability ([4]; first compound 0.1 µM) was 0.573, the relative viability ([4]; first compound 0.3162 µM) was 0.608 and the relative viability ([4]; first compound 1 µM) was 0.774.

For NCI-H520, the relative viability ([1]; first compound 0.01 µM) was 0.665, the relative viability ([1]; first compound 0.03162 µM) was 0.792 and the relative viability ([1]; first compound 0.1 µM) was 0.697. It also gave a relative viability ([1]; first compound 0.3162 µM) of 0.662, a relative viability ([1]; first compound 1 µM) of 0.725 and a relative viability ([2]; first compound 0.04 µM) of 0.668. The relative viability ([2]; first compound 0.1265 µM) was 0.668, the relative viability ([2]; first compound 0.4 µM) was 0.685 and the relative viability ([2]; first compound 1.265 µM) was 0.489. It also gave a relative viability ([3]; first compound 0.04 µM) of 0.48, a relative viability ([3]; first compound 0.4 µM) of 0.442 and a relative viability ([3]; first compound 1.265 µM) of 0.423. It also gave a relative viability ([4]; first compound 0.01 µM) of 0.554, a relative viability ([4]; first compound 0.03162 µM) of 0.538 and a relative viability ([4]; first compound 0.1 µM) of 0.626. It also gave a relative viability ([4]; first compound 0.3162 µM) of 0.613 and a relative viability ([4]; first compound 1 µM) of 0.669.

In the case of NCI-H1755, the relative viability ([1]; first compound 0.01 µM) is reported as 0.862, the relative viability ([1]; first compound 0.03162 µM) is reported as 0.867 and the relative viability ([1]; first compound 0.1 µM) is reported as 0.893. The relative viability ([1]; first compound 0.3162 µM) was 0.91, the relative viability ([1]; first compound 1 µM) was 0.882 and the relative viability ([2]; first compound 0.04 µM) was 0.796. It also gave a relative viability ([2]; first compound 0.1265 µM) of 0.609, a relative viability ([2]; first compound 0.4 µM) of 0.653 and a relative viability ([2]; first compound 1.265 µM) of 0.726. It also gave a relative viability ([3]; first compound 0.04 µM) of 0.558, a relative viability ([3]; first compound 0.1265 µM) of 0.528 and a relative viability ([3]; first compound 0.4 µM) of 0.472. The relative viability ([3]; first compound 1.265 µM) was 0.545, the relative viability ([4]; first compound 0.01 µM) was 0.775 and the relative viability ([4]; first compound 0.03162 µM) was 0.838. It also gave a relative viability ([4]; first compound 0.1 µM) of 0.864, a relative viability ([4]; first compound 0.3162 µM) of 0.905 and a relative viability ([4]; first compound 1 µM) of 0.913.

NCI-H2023 gave a relative viability ([1]; first compound 0.01 µM) of 0.711, a relative viability ([1]; first compound 0.03162 µM) of 0.592 and a relative viability ([1]; first compound 0.1 µM) of 0.747. For the same cell line, the relative viability ([1]; first compound 0.3162 µM) was 0.571, the relative viability ([1]; first compound 1 µM) was 0.711 and the relative viability ([2]; first compound 0.04 µM) was 0.75. For the same cell line, the relative viability ([2]; first compound 0.1265 µM) was 0.201, the relative viability ([2]; first compound 0.4 µM) was 0.419 and the relative viability ([2]; first compound 1.265 µM) was 0.127. For the same cell line, the relative viability ([3]; first compound 0.04 µM) was 0.337, the relative viability ([3]; first compound 0.1265 µM) was 0.31 and the relative viability ([3]; first compound 0.4 µM) was 0.174. For the same cell line, the relative viability ([3]; first compound 1.265 µM) was 0.118, the relative viability ([4]; first compound 0.01 µM) was 0.23 and the relative viability ([4]; first compound 0.03162 µM) was 0.226. The relative viability ([4]; first compound 0.1 µM) was 0.281, the relative viability ([4]; first compound 0.3162 µM) was 0.25 and the relative viability ([4]; first compound 1 µM) was 0.347.

In the case of NCI-H2009, the relative viability ([1]; first compound 0.01 µM) is reported as 0.965, the relative viability ([1]; first compound 0.03162 µM) is reported as 1.09 and the relative viability ([1]; first compound 0.1 µM) is reported as 0.928. It also gave a relative viability ([1]; first compound 0.3162 µM) of 1.01, a relative viability ([1]; first compound 1 µM) of 0.943 and a relative viability ([2]; first compound 0.04 µM) of 0.789. The relative viability ([2]; first compound 0.1265 µM) was 0.768, the relative viability ([2]; first compound 0.4 µM) was 0.747 and the relative viability ([2]; first compound 1.265 µM) was 0.598. It also gave a relative viability ([3]; first compound 0.04 µM) of 0.779, a relative viability ([3]; first compound 0.1265 µM) of 0.693 and a relative viability ([3]; first compound 0.4 µM) of 0.598. The relative viability ([3]; first compound 1.265 µM) was 0.519, the relative viability ([4]; first compound 0.01 µM) was 0.394 and the relative viability ([4]; first compound 0.03162 µM) was 0.369. The relative viability ([4]; first compound 0.1 µM) was 0.394, the relative viability ([4]; first compound 0.3162 µM) was 0.38 and the relative viability ([4]; first compound 1 µM) was 0.463.
